Experimental data reported in PMC5815658 (Journal of Medicinal Chemistry, 2017).
In brackets after ≈: the same amount, converted by molar mass.

Legend:
[1] = LogD7.4 determination by RP-HPLC; conditions: pH 7.4
Protocol: Kinetic Solubility Determination
(§1) Kinetic Solubility values were determined via an in-house RP-HPLC method. Calibration standards were prepared at a
(§2) concentration of 100 M in 100 % DMSO. Calibration was achieved by injecting 0.5, 2.5 and 5 L of the 100 M standard.
The supernatant was removed and a small
(§3) volume of DMSO was added to ensure the compound remained in solution. Kinetic solubility values were determined by
(§4) substituting the AUC (Area Under the Curve) of the kinetic solubility samples into the equation obtained from the linear part of
(§5) Injections (with needle wash) of the calibration and kinetic solubility samples were made onto a Phenomenex Kinetex C18
(§6) column (5 µm, 50 mm x 4.6 mm, 100A, Phenomenex, Torrence, USA). Chromatographic separation at 30 °C was carried out
(§7) modified with 0.1 % formic acid) at a flow rate of 1.5 mL/min.
(§8) array detector (Agilent, Santa Clara, USA). Raw data was processed using Agilent Chemstation Rev.C.01.05.8. The data was then […]
(§9) LogD7.4 values were determined via an in-house RP-HPLC method based on previous work by Kerns and Di.4 Calibration was […]
(§10) by comparing HPLC-determined Log D7.4 values of two other commercially-available drugs with literature Log D7.4 values. […]
(§11) HPLC Log D7.4 values of in-house compounds were determined by substituting the compounds’ retention times into the equation […]

[2] = biological target: T1, pirin (Homo sapiens, UniProt O00625); assay: TMT MS2 whole proteome mass spectrometry in SK-OV-3 cells; assay type: cell-based; design: endogenous in cells; host or cells: SK-OV-3; conditions: 50 nM, 4 h
T1 sequence (O00625 1-290): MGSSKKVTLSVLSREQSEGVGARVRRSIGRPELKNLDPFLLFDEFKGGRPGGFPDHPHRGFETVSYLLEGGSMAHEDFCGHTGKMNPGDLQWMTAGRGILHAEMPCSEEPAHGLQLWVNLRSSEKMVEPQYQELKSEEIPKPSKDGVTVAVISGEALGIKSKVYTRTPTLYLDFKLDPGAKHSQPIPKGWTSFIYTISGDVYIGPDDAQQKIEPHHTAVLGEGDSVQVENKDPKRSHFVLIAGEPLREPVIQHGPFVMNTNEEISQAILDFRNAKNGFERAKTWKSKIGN
Protocol: PDP 16 Quantified Mass Spectrometry in SK-OV-3 Cells
SK-OV-3 cells (enough to yield 50μg total protein per sample) treated with DMSO control or 50nM PDP 16 for 4 h. Cells were then harvested and lysed by scraping in urea lysis buffer (20mM HEPES pH 8.0, 9M urea, 1mM sodium orthovanadate, 2.5mM sodium pyrophosphate, 1mM β-glycerophosphate). Samples were sonicated and cent rifuged at 20,000 x g for 15 min and the protein extract (supernatant) collected . The experiment was performed in triplicates. The protein extract samples (supernatant) were then sent to www.proteomics.com, (Accessed September 7, 2017) for analysis.
Proteome Sciences’ proprietary TMT®MS2 workflow was applied for the analysis of total proteomic protein expression. In addition, Proteome Sciences’ bioinformatics tools were applied for data normalization, data integration and statistical analysis .
We identified 107318 unique peptides and 8 785 unique protein groups. This coverage of the proteome is within our normal range for peptide and protein identifications in cell line samples. […]
component analysis (PCA) plots explaining ~64% o f the variance of statistically significant features at peptide level. This observation was consistent with the result at protein level.
Using Proteome Sciences’ proprietary TMT®MS2 workflow on a cohort of SK-OV-3 cell line samples derived from ICR’s pirin degradation probe (n=3) and DMSO control (n=3). A reference sample was created from pooling the other samples.
PAGE confirming a good sample quality. Thus, all samples were processed following TMT®MS2 workflow.
All LC-MS/MS runs passed internal quality assessments, based on total ion counts (TICs) and number of peptide spectral matches (PSMs), considering the MS method to be used for data acquisition. Labelling efficiency was over 98.5% across all fractions.
TMT®MS2 identified 8785 unique protein groups from 107318 unique peptide sequences. This is within the typical range of protein and peptide identifications from cell line samples.
Total Peptide Spectral Match: 316215
Total Unique Peptide Sequences: 107318
Total Unique Protein IDs: 8785
Median Standard Deviation and Inter Quartile Range (IQR) were measured for each sample. […]
Protein solutions of SK -OV-3 cell line samples derived from ICR’s pirin degradation probe (n=3) and DMSO control (n=3) were provided in 9M urea 20 mM HEPES, 1 mM activated sodium orthovanadate, 2.5 mM sodium pyrophosphate, 1 mM b-glycerol-phosphate at pH 8.0. […] The protein concentration of the supernatant was determined by Bradford protein assay and each sample visualized by Coomassie stained (Imperial Stain, Pierce) SDS-PAGE 4-20% gradient gels (Criterion, Biorad) using 10 µg of each sample. […]

[3] = biological target: T1, pirin; assay: Pirin SPR (surface plasmon resonance) binding
Protocol: 9 All surface plasmon resonance (SPR) experiments were carried out on a Biacore T100
enhanced to T200 sensitivity (GE Life Scienc es, Amersham Place, UK). Amine coupling chemistry was used to immobilize the
pirin protein on a research grade CM5 sensor chip. The running buffer used in the immobilization step consisted of 1 x phosph ate
using a 1:1 mixture of 100 mM N-hydroxysuccinimide and 400 mM 1 -ethyl-3-(3-dimethylaminopropyl)-carbodiimide. Pirin was
No. T6205) added to provide protection for the active site lysines. The reaction was monitored in real time and stopped when a
target immobilization level of ~5000RU was obtained. Finally, the surfa ce was blocked via an injection of 1 M ethanolamine at
pH 8.5 for 7 min. The flow rate was maintained at 10 µL/min for all the above procedures. Flow cell one was left unmodified a nd
used as the reference surface.
Following protein immobilization, the run ning buffer was changed to 1 x phosphate buffered saline containing 0.05 % (v/v)
polypropylene V-bottomed plates (Greiner, Stonehouse, UK), which became the sample plates for the SPR. For each compound,
an eight-point dose response experiment was carried out, usi ng a concentration range suitable for the estimated pK D, in a buffer
mix compatible with the Biacore running buffer. The experiments were performed at a flow rate of 30 µL/min, a sample injectio n
time of 90 seconds and a dissociation time of 200 seconds. The CM5 surface was not regenerated between sample injections.
The response units for the equilibrium analysis were measured 4 seconds prior to the end of the injection time. pK D values were
determined from analysis of the background normalized binding curv e generated from the sensorgrams, under equilibrium
as the geometric mean±standard error of the mean (SEM) from three independ ent measurements. The ratio of experimental to

[4] = Kinetic solubility determination by RP-HPLC; conditions: PBS, pH 7.4, aqueous buffer, kinetic from dmso stock
Protocol: Kinetic Solubility Determination
as §1, §2
The supernatant was removed and a small
as §3, §4, §5, §6, §7, §8, §9, §10, §11

chromatographic logD [1]: 2.7
Proteins with statistically significant (p(adj) < 0.05) difference in expression ([2]; 8547 quantifiable proteins): only pirin
P.Value pirin (PIR, O00625), PDP vs Veh ([2]; TMT): 1.64E-08
Reduction of pirin protein expression vs vehicle ([2]; TMT): 2.3 fold
logFC pirin (PIR, O00625), PDP vs Veh ([2]; TMT): -1.208
Kd ([3]; Pirin SPR KD, equilibrium analysis, one site specific binding model, geometric mean n = 3): 55 nM
Kd ([3]; Pirin SPR KD, representative single repeat, best-fit value, one site specific binding): 56.3 nM
Kd ([3]; Pirin SPR pKD, mean of 3 values (unrounded), column statistics): 54.5 nM
Increase in affinity for recombinant pirin compared to PDP 10 ([3]; SPR): 4.2 fold
Measured Rmax/Theoretical Rmax ([3]; SPR): 0.39
solubility kinetic at 120 min [4]: 2 µM (≈ 1.89 µg/mL)
Compound: O=C1CCC(N2C(=O)c3cccc(OCCOCCOCCN4CCN(Cc5ccc6cc(C(=O)Nc7cc(NC(=O)c8ccc9c(c8)OCCO9)ccc7Cl)ccc6n5)CC4)c3C2=O)C(=O)N1 (centres unmarked) [PDP 16, N-(2-Chloro-5-(2,3-dihydrobenzo[b][1,4]dioxine-6-carboxamido)phenyl)-2-((4-(2-(2-(2-((2-(2,6-dioxopiperidin-3-yl)-1,3-dioxoisoindolin-4-yl)oxy)ethoxy)ethoxy)ethyl)piperazin-1-yl)methyl)quinoline-6-carboxamide]
